Read-outs that look alike come from different tables or passages of the source.
Target: T1, BCL6 (Homo sapiens, UniProt P41182)
T1 construct: endogenous in cells; host or cells: T47D breast cancer epithelial cells
Assay: Immunofluorescence protocol for high content imaging of BCL6 (degradation) in T47D cells, 3 days compound treatment
Type: cell-based
Details: for DC50: read-out: Mean DC50 (nM)* category; for Dmax: read-out: Mean Dmax (%)** category
Summary of the method: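 For degradation, compound series (3-fold, 11 points, top 0.1 or 1 μM final) were added to adherent T47D cultures for 3 days. BCL6 immunostaining used a rabbit antibody at 1:300 and an Alexa-488 secondary, with imaging at 10× magnification.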

[1] = T47D cells, 3 days compound treatment

Compound | DC50 [1] [nM] | Dmax [1] [%] | Dmax (T47D) [%] | DC50 [nM]
CNC(=O)COc1cc2cc(Nc3nc(N4CCC(O[C@H]5C[C@@H](N6CCC(c7ccc8c(c7)C(=O)N(C7CCC(=O)NC7=O)C8=O)CC6)C5)CC4)ncc3Cl)ccc2n(C(C)C)c1=O (stereo partly shown) [Compound 153, 2-({6-[(5-chloro-2-{4-[(1s,3s)-3-{4-[2-(2,6-dioxopiperidin-3-yl)-1,3-dioxo-2,3-dihydro-1H-isoindol-5-yl]piperidin-1-yl}cyclobutoxy]piperidin-1-yl}pyrimidin-4-yl)amino]-2-oxo-1-(propan-2-yl)-1,2-dihydroquinolin-3-yl}oxy)-N-methylacetamide] | 50 to 100 | < 50 |  | 
CNC(=O)COc1cc2cc(Nc3nc(N4CCC(O[C@H]5C[C@H](N6CC7(CN(c8ccc9c(c8)CN(C8CCC(=O)NC8=O)C9=O)C7)C6)C5)CC4)ncc3Cl)ccc2n(C(C)C)c1=O (stereo partly shown) [Compound 353, 2-({6-[(5-chloro-2-{4-[(1r,3r)-3-{6-[2-(2,6-dioxopiperidin-3-yl)-1-oxo-2,3-dihydro-1H-isoindol-5-yl]-2,6-diazaspiro [3.3]heptan-2-yl}cyclobutoxy]piperidin-1-yl}pyrimidin-4-yl)amino]-2-oxo-1-(propan-2-yl)-1,2-dihydroquinolin-3-yl}oxy)-N-methylacetamide] |  |  | ≥ 70 | < 10
CNC(=O)COc1cc2c(F)c(Nc3nc(N4CCC(F)(CN5CCC6(CC5)CN(c5ccc7c(c5)CN(C5CCC(=O)NC5=O)C7=O)C6)CC4)ncc3Cl)ccc2n(C(C)C)c1=O (stereo not shown) [Compound 389, 2-{[6-({5-chloro-2-[4-({2-[2-(2,6-dioxopiperidin-3-yl)-1-oxo-2,3-dihydro-1H-isoindol-5-yl]-2,7-diazaspiro[3.5]nonan-7-yl}methyl)-4-fluoropiperidin-1-yl]pyrimidin-4-yl}amino)-5-fluoro-2-oxo-1-(propan-2-yl)-1,2-dihydroquinolin-3-yl]oxy}-N-methylacetamide] |  |  | ≥ 70 | < 10
CNC(=O)COc1cc2cc(Nc3nc(N4CCN(CC5CCC6(CC5)CN(c5c(F)ccc7c5CN(C5CCC(=O)NC5=O)C7=O)C6)CC4)ncc3Cl)ccc2n(C(C)C)c1=O (stereo not shown) [Compound 314, 2-{[6-({5-chloro-2-[4-({2-[2-(2,6-dioxopiperidin-3-yl)-5-fluoro-1-oxo-2,3-dihydro-1H-isoindol-4-yl]-2-azaspiro[3.5]nonan-7-yl}methyl)piperazin-1-yl]pyrimidin-4-yl}amino)-2-oxo-1-(propan-2-yl)-1,2-dihydroquinolin-3-yl]oxy}-N-methylacetamide] |  |  | 50 to 70 | < 10
CNC(=O)COc1cc2cc(Nc3nc(N4CCC(O[C@H]5C[C@H](N6CC=C(c7ccc8c(c7F)CN(C7CCC(=O)NC7=O)C8=O)CC6)C5)CC4)ncc3Cl)ccc2n(C(C)C)c1=O (stereo partly shown) [Compound 426, 2-({6-[(5-chloro-2-{4-[(1r,3r)-3-{4-[2-(2,6-dioxopiperidin-3-yl)-4-fluoro-1-oxo-2,3-dihydro-1H-isoindol-5-yl]-1,2,3,6-tetrahydropyridin-1-yl}cyclobutoxy]piperidin-1-yl}pyrimidin-4-yl)amino]-2-oxo-1-(propan-2-yl)-1,2-dihydroquinolin-3-yl}oxy)-N-methylacetamide] |  |  | ≥ 70 | < 10
CNC(=O)COc1cc2cc(Nc3cc(N4CCC(CN5CCC6(CC5)CN(c5ccc7c(c5F)CN(C5CCC(=O)NC5=O)C7=O)C6(C)C)CC4)ncc3Cl)ccc2n(C(C)C)c1=O (stereo not shown) [Compound 229, 2-{[6-({5-chloro-2-[4-({2-[2-(2,6-dioxopiperidin-3-yl)-4-fluoro-1-oxo-2,3-dihydro-1H-isoindol-5-yl]-1,1-dimethyl-2,7-diazaspiro[3.5]nonan-7-yl}methyl)piperidin-1-yl]pyridin-4-yl}amino)-2-oxo-1-(propan-2-yl)-1,2-dihydroquinolin-3-yl]oxy}-N-methylacetamide] |  |  | ≥ 70 | < 10
CNC(=O)COc1cc2cc(Nc3nc(N4CCC(O[C@H]5C[C@H](N6CCN(c7ccc8c(c7C)CN(C7CCC(=O)NC7=O)C8=O)CC6)C5)CC4)ncc3Cl)ccc2n(C(C)C)c1=O (stereo partly shown) [Compound 416, 2-({6-[(5-chloro-2-{4-[(1r,3r)-3-{4-[2-(2,6-dioxopiperidin-3-yl)-4-methyl-1-oxo-2,3-dihydro-1H-isoindol-5-yl]piperazin-1-yl}cyclobutoxy]piperidin-1-yl}pyrimidin-4-yl)amino]-2-oxo-1-(propan-2-yl)-1,2-dihydroquinolin-3-yl}oxy)-N-methylacetamide] |  |  | ≥ 70 | < 10
CNC(=O)COc1cc2cc(Nc3nc(N4CCC(CN5CC6(CCN(c7cc8c(cc7OC)C(=O)N(C7CCC(=O)NC7=O)C8)CC6)C5)CC4)ncc3Cl)ccc2n(C(C)C)c1=O (stereo not shown) [Compound 85, 2-{[6-({5-chloro-2-[4-({7-[2-(2,6-dioxopiperidin-3-yl)-6-methoxy-1-oxo-2,3-dihydro-1H-isoindol-5-yl]-2,7-diazaspiro[3.5]nonan-2-yl}methyl)piperidin-1-yl]pyrimidin-4-yl}amino)-2-oxo-1-(propan-2-yl)-1,2-dihydroquinolin-3-yl]oxy}-N-methylacetamide] | < 10 | 50 to 70 |  | 
CNC(=O)COc1cc2cc(Nc3nc(N4CCC(O[C@H]5C[C@H](N6CCN(c7ccc8c(n7)C(C)N(C7CCC(=O)NC7=O)C8=O)[C@H](C)C6)C5)CC4)ncc3Cl)ccc2n(C(C)C)c1=O (stereo in doubt) [Compound 203, 2-({6-[(5-chloro-2-{4-[(1r,3r)-3-[(3R)-4-[6-(2,6-dioxopiperidin-3-yl)-7-methyl-5-oxo-5H,6H, 7H-pyrrolo[3,4-b]pyridin-2-yl]-3-methylpiperazin-1-yl]cyclobutoxy]piperidin-1-yl}pyrimidin-4-yl)amino]-2-oxo-1-(propan-2-yl)-1,2-dihydroquinolin-3-yl}oxy)-N-methylacetamide] | < 10 | ≥ 70 |  | 

Now from value to compound, other results behind:

DC50 [1] [nM] | Dmax [1] [%] | Compound | Dmax (T47D) [%] | DC50 [nM]
< 10 | ≥ 70 | CNC(=O)COc1cc2cc(Nc3nc(N4CCC(F)(CN5CCC6(CC5)CN(c5cccc7c5CN(C5CCC(=O)NC5=O)C7=O)C6)CC4)ncc3Cl)ccc2n(C(C)C)c1=O (stereo not shown) [Compound 52, 2-{[6-({5-chloro-2-[4-({2-[2-(2,6-dioxopiperidin-3-yl)-1-oxo-2,3-dihydro-1H-isoindol-4-yl]-2,7-diazaspiro[3.5]nonan-7-yl}methyl)-4-fluoropiperidin-1-yl]pyrimidin-4-yl}amino)-2-oxo-1-(propan-2-yl)-1,2-dihydroquinolin-3-yl]oxy}-N-methylacetamide] |  | 
< 10 | 50 to 70 | CNC(=O)COc1cc2cc(Nc3nc(N4CCC(CN5CC[C@]6(CCN(c7ccc8c(c7)CN([C@H]7CCC(=O)NC7=O)C8=O)C6)C5)CC4)ncc3Cl)ccc2n(C(C)C)c1=O [Compound 1, 2-[(6-{[5-chloro-2-(4-{[(5S)-7-{2-[(3S)-2,6-dioxopiperidin-3-yl]-1-oxo-2,3-dihydro-1H-isoindol-5-yl}-2,7-diazaspiro[4.4]nonan-2-yl]methyl}piperidin-1-yl)pyrimidin-4-yl]amino}-2-oxo-1-(propan-2-yl)-1,2-dihydroquinolin-3-yl)oxy]-N-methylacetamide] |  | 
10 to 50 |  | CNC(=O)COc1cc2cc(Nc3nc(N4CCC5(CCN(CC6(F)CCN(c7c(F)ccc8c7C(=O)N(C7CCC(=O)NC7=O)C8)CC6)CC5)CC4)ncc3Cl)ccc2n(C(C)C)c1=O (stereo not shown) [Compound 152, 2-{[6-({5-chloro-2-[9-({1-[2-(2,6-dioxopiperidin-3-yl)-5-fluoro-3-oxo-2,3-dihydro-1H-isoindol-4-yl]-4-fluoropiperidin-4-yl}methyl)-3,9-diazaspiro[5.5]undecan-3-yl]pyrimidin-4-yl}amino)-2-oxo-1-(propan-2-yl)-1,2-dihydroquinolin-3-yl]oxy}-N-methylacetamide] |  | 
< 10 | < 50 | CNC(=O)COc1cc2cc(Nc3nc(N4CCC(OC5CN([C@H]6CC[C@@H](c7ccc8c(c7Cl)CN(C7CCC(=O)NC7=O)C8=O)CC6)C5)CC4)ncc3Cl)ccc2n(C(C)C)c1=O (stereo partly shown) [Compound 186, 2-{[6-({5-chloro-2-[4-({1-[(1s,4s)-4-[4-chloro-2-(2,6-dioxopiperidin-3-yl)-1-oxo-2,3-dihydro-1H-isoindol-5-yl]cyclohexyl]azetidin-3-yl}oxy)piperidin-1-yl]pyrimidin-4-yl}amino)-2-oxo-1-(propan-2-yl)-1,2-dihydroquinolin-3-yl]oxy}-N-methylacetamide] |  | 
10 to 50 | < 50 | CNC(=O)COc1cc2cc(Nc3nc(N4CC5C(CN6CCN(c7cccc8c7C(=O)N(C7CCC(=O)NC7=O)C8=O)CC6)C5C4)ncc3Cl)ccc2n(C(C)C)c1=O (stereo not shown) [Compound 158, 2-{[6-({5-chloro-2-[6-({4-[2-(2,6-dioxopiperidin-3-yl)-1,3-dioxo-2,3-dihydro-1H-isoindol-4-yl]piperazin-1-yl}methyl)-3-azabicyclo [3.1.0]hexan-3-yl]pyrimidin-4-yl}amino)-2-oxo-1-(propan-2-yl)-1,2-dihydroquinolin-3-yl]oxy}-N-methylacetamide] |  | 
< 10 | 50 to 70 | CNC(=O)COc1cc2cc(Nc3nc(N4CCC(CN5CCC6(CN(c7cccc8c7CN(C7CCC(=O)NC7=O)C8=O)C6)C(F)(F)C5)CC4)ncc3Cl)ccc2n(C(C)C)c1=O (stereo not shown) [Compound 102, 2-{[6-({5-chloro-2-[4-({2-[2-(2,6-dioxopiperidin-3-yl)-1-oxo-2,3-dihydro-1H-isoindol-4-yl]-5,5-difluoro-2,7-diazaspiro[3.5]nonan-7-yl}methyl)piperidin-1-yl]pyrimidin-4-yl}amino)-2-oxo-1-(propan-2-yl)-1,2-dihydroquinolin-3-yl]oxy}-N-methylacetamide] |  | 
< 10 | 50 to 70 | CNC(=O)COc1cc2cc(Nc3nc(N4CCN(CC5CCN(c6ccc(F)c7c6CN(C6CCC(=O)NC6=O)C7=O)CC5)CC4)ncc3Cl)ccc2n(C(C)C)c1=O (stereo not shown) [Compound 120, 2-{[6-({5-chloro-2-[4-({1-[2-(2,6-dioxopiperidin-3-yl)-7-fluoro-1-oxo-2,3-dihydro-1H-isoindol-4-yl]piperidin-4-yl}methyl)piperazin-1-yl]pyrimidin-4-yl}amino)-2-oxo-1-(propan-2-yl)-1,2-dihydroquinolin-3-yl]oxy}-N-methylacetamide] |  | 

Reference: patent publication US11986532B2 (Arvinas Operations, Inc., priority 2021, dated 2024)
